Laboratory results taken from patent publication US20090054527A1, “Administration of capsaicinoids” (AlgoRx, priority 2002, published 2009).
“And” between values parts separate entries of the source, which are not always exact repeats. Equal entries are not always repeated. Where two headings read alike, the source gives them in different places.

Assays:
[1] = tested on: inflammatory and neuropathic pain; details: formalin test and spinal nerve ligation; cited from earlier work
[2] = human, in vivo; cited from earlier work
[3] = cited from earlier work
[4] = tested on: radiation induced hyperalgesia; details: systemic, cited from earlier work
[5] = clinical; design: species or system human; details: in vivo
Description: The pharmacokinetic parameters of Cmax, Tmax, AUC(0−tlast) and t½ were evaluated.

[6] = tested on: subjects with osteoarthritis of the knee; experiment: Osteoarthritis of the knee safety study (Phase 1): intra-articular purified capsaicin after lignocaine; safety, tolerability, VAS pain; type: in vivo, human
Description: The primary objective of the study was to evaluate the safety and tolerability of intra-articular capsaicin, when co-administered with intra-articular local anesthetic, compared to placebo, in subjects with end-stage osteoarthritis of the knee, already scheduled to receive knee replacements.
The study was designed to include 16 evaluation subjects. […] Sixteen subjects completed the study.
Patients were treated randomly and in double-blind fashion in four treatment groups, with each group having a progressively longer interval between the intra-articular administration of study medication and subsequent total knee replacement (2, 4, 7, and 14 days). […] Gross and microscopic pathology analysis was completed for each treatment group before the next treatment group was treated.
(§1) Each subject had 3 study visits: a Screening Day (Day −7 to −1), the Treatment Day (Day 0), and a Post-Treatment Day (scheduled for Day +2, +4, +7, or +14). On the Treatment Day the subject was randomized, pre-treatment evaluation was performed. The patients were brought into the procedure room, and a VAS pain score was taken (0 mm—no pain, 100 mm—extreme pain). Once the patient had marked his or her pain on the card, he/she was prepped for knee cannulation. Once the cannula was placed, the patient received by intra-articular infiltration, 3 mg/kg (maximum dose of 200 mg) of 2% lignocaine into the knee scheduled to be replaced.
VAS pain scores as well as verbal reports were taken immediately following administration, as well as prior to knee replacement surgery. No subjects discontinued from the study due to adverse events.
On the Post-Treatment Day, study evaluation was performed followed by the scheduled knee replacement, with intra-operative bone and soft tissue biopsies performed for subsequent examination. […] This therefore left the 3 placebo and 9 active patients from the 4 day, 7 day, and 14 day cohorts.

[7] = tested on: subjects with osteoarthritis of the knee; experiment: Osteoarthritis of the knee efficacy study (Phase 2): NRS pain score; type: in vivo, human; details: 1000 μg intra-articular, three weeks following administration, P=0.03
Description: as §1, with “The study is designed to include 12 evaluation subjects (Patients suffering a defined pain: >40 mm on VAS). […] Patients are treated randomly and in double-blind fashion. Gross and microscopic pathology analysis are completed for each treatment group. Each” for “Each”, “has” for “had”, “is” for “was”, “patient is” for “patients were”, “marks” for “had marked”, “receives,” for “received”
VAS pain scores as well as verbal reports are taken immediately following administration, as well as prior to knee replacement surgery. On the Post-Treatment Day, a study evaluation is performed followed by the scheduled knee replacement, with intra-operative bone and soft tissue biopsies performed for subsequent examination. […]
Changes in NRS (Numerical Rating Scale) pain scores were measured at three weeks following administration.

[8] = tested on: subjects undergoing transpositional osteotomy (bunionectomy); experiment: Bunionectomy efficacy study (Phase II): capsaicin dripped into the wound before closure; VAS pain and rescue medication; type: in vivo, human; details: for VAS pain score at the operation site (mean +/− SEM): 1000 μg, n = 11
Description: The primary efficacy endpoint was the proportion of subjects in each treatment group requiring opioid analgesia in the first 24 hours post-operatively. The proportions were compared amongst treatment groups using the Cochran-Haenszel test. Secondary efficacy end points included: i) proportion of subjects in each treatment group requiring opioid analgesia in the first 36 hour period post-operatively (Similarly, the proportions were compared amongst treatment groups using the Cochran-Haenszel test); ii) proportion of subjects in each treatment group requiring opioid analgesia in the 10 day period post-operatively (Similarly, the proportions were compared amongst treatment groups using the Cochran-Haenszel test); iii) time to first usage of opioid analgesia in each treatment group (a survival analysis approach will be used: the product-limit (Kaplan-Meier) method will be applied to time to first usage of opioid analgesia. The median time to first usage of opioid analgesia will be estimated in both treatment groups. Pairwise comparisons will be performed to test for equality of the survival curves between the 2 treatment groups using both the log-rank and the Wilcoxon test); iv) total usage of analgesia in each treatment group (the total usage of analgesia will be compared by an analysis of variance with treatment and center as independent variables. A pairwise comparison will be performed between the treatment groups); and v) VAS assessment of pain at the site of operation in each treatment group (The VAS score at each time point will be compared by an analysis of variance with treatment and center as independent variables. A pairwise comparison will be performed between the treatment groups). […] The efficacy analysis was performed on the data obtained ten days postoperatively. The safety analysis was performed based on the safety data for the entire study, including the 6 week and 12 week follow-up periods. The blind was broken at the time the efficacy analysis was performed. However, the individual treatment assignment was available to the statistical analysis group only. All other personnel involved in the study, including the Investigator, study monitor and proprietary staff, remained blinded until the entire study was completed.
The study was designed to include 40 evaluation subjects. […] Each subject had six (6) study visits: a Screening Day (Day −28 to −1), an Operation Day (Day 0), and four (4) Follow-up visits (scheduled for Days 3, 10 and weeks 6 and 12).
On Operation Day (Day 0) the following was performed: a) Pre-operation: Prior to the initiation of an ankle block, inclusion/exclusion criteria assessment was performed. […] Immediately prior to wound closure, the Investigator slowly dripped the study medication (4 mL) from a syringe into the wound, ensuring even tissue exposure. The wound was then be closed according to normal practices and procedures.
In the 24 hours following administration of study medication, vital signs (supine pulse rate and blood pressure) were recorded at 1, 2, 4 and 24 hours post administration. VAS assessment of pain at the operation site was performed at 1, 4, 8, 12 and 24 hours post administration. In those instances where VAS measurements coincide with blood sampling procedures, the VAS assessment was performed first. […] The quantity of each blood sample was 10 mL. Laboratory safety assessments, e.g., haematology, biochemistry, urinalysis were performed at 24 hours post administration. Adverse events were spontaneously reported by the subject and recorded. Rescue analgesia medication was provided to the subject if required (initially diclofenac 50 mg, repeated at 8 hourly intervals if necessary). When diclofenac was judged by the Investigator to provide inadequate pain relief then the subject was provided with alfentanil 1 mg, repeated at 6 hourly intervals, if necessary.

## CN(C)CCC=C1c2ccccc2CCc2ccccc21 [amitriptyline]
[1]
  action when administered locally: produced local antinociceptive actions

## CNCCCN1c2ccccc2CCc2ccccc21 [desipramine]
[1]
  action when administered locally: produced local antinociceptive actions

## CN1C(C(=O)Nc2ccccn2)=C(O)c2ccccc2S1(=O)=O [piroxicam]
[2]
  patients experiencing gross bleeding and ulceration: up to 4%

## COc1cc(CNC(=O)CCCC/C=C/C(C)C)ccc1O [purified capsaicin, N-(4-hydroxy-3-methoxybenzyl)-8-methylnon-trans-6-enamide]
[3]
  solubility in alcohol, ether, benzene and chloroform: freely soluble
  solubility in water: practically insoluble
[4]; final doses of 25 mg/kg or less, prior to ultra violet radiation
  effect on radiation induced hyperalgesia: prevented radiation induced hyperalgesia
[4]; final doses of 25 mg/kg or less
  effect on pain threshold: did not elevate the pain threshold above normal range
[4]; final doses of 50 mg/kg or greater
  effect on pain threshold: pain threshold elevated
[5]; human, 300 ug
  Tmax: 30 min
[5]; human, 300 ug, terminal exponential half life, per subject
  half-life: 19.6 min
[5]
  plasma concentrations compared with the 100 μg and 300 μg dose groups: clearly lower
[6]; 10 μg dose group
  incidence of post injection hyperalgesia: no subjects
[6]; 10 μg intra-articular
  patients reporting transient burning pain immediately following instillation: 0 of 4
[6]; 100 μg dose group
  duration of post-administration (hyper)algesic pain, per subject: 9 min
  incidence of post injection hyperalgesia: 1 subject
  subjects requiring intervention for post-injection (hyper)algesia: 1 subject
[6]; 100 μg intra-articular
  patients reporting transient burning pain immediately following instillation: 1 of 4
[6]; 300 μg dose group
  duration of post-administration (hyper)algesic pain, per subject: 17 minutes and 25 minutes (2×) and 42 minutes
  incidence of post injection hyperalgesia: 4 subjects
  subjects requiring intervention for post-injection (hyper)algesia: 4 subjects
[6]; 300 μg intra-articular
  patients reporting transient burning pain immediately following instillation: 4 of 4
[6]; 9 active patients of the 4, 7 and 14 day cohorts, doses 10-300 μg pooled
  reduction of VAS pain score, before administration vs day of surgery: 62±14%
[6]; 10-300 μg intra-articular
  effects on laboratory safety parameters or vital signs: no treatment related effects
  effects on soft tissue, cartilage or bone upon histopathological examination: no treatment related effects
  erythema, edema or hemorrhage at the site of injection: no treatment related signs
  gross and microscopic pathology: normal
  leakage of study drug from the joint space: low leakage
  systemic side effects: No treatment related systemic side effects
[6]; all 3 capsaicin dose groups
  median decrease from baseline to pre-operative time point in VAS for pain at the target knee, vs placebo: substantially greater
[6]; all dose levels (10, 100, 300 μg)
  tolerability: well tolerated
[6]; all episodes, 100 and 300 μg
  onset of post-administration (hyper)algesia after administration: ≤ 5 min
[6]; any dose group, any time point
  effect on proprioception at the injected knee: no discernable effect
[6]; any of the dose levels (10, 100, 300 μg)
  indication of efficacy on VAS pain: No clear treatment related indication of efficacy
[7]
  final NRS (Numerical Rating Scale) pain score: 3.97
[8]; 1000 μg prior to wound closure
  time at which a subject required rescue, per subject: 1 h and 4 h and 5 h and 8 h and 12 h
[8]; 1000 μg prior to wound closure, 72 hours, n=11
  study subjects requiring rescue: 45%
[8]; 1000 μg prior to wound closure, n=11
  subjects that did not rescue in 72 hours: 6 subjects
[8]; 1 hr
  VAS pain score at the operation site (mean +/− SEM): 11.1 +/− 7.3
[8]; 8 hr
  VAS pain score at the operation site (mean +/− SEM): 5.5 +/− 2.3
[8]; 12 hr
  VAS pain score at the operation site (mean +/− SEM): 8.2 +/− 3.8
[8]; 24 hr
  VAS pain score at the operation site (mean +/− SEM): 1.9 +/− 1.0
[8]; 48 hr
  VAS pain score at the operation site (mean +/− SEM): 5.9 +/− 2.5
[8]; 72 hr
  VAS pain score at the operation site (mean +/− SEM): 10.6 +/− 3.5
